Assay results: patent US20200345746A1, “Oxazine Derivative for Use in the Prevention of Alzheimer's Disease in at Risk Patents” (Novartis AG, priority 2016, published 2020)
Read-outs that look alike come from different tables or passages of the source.

How the values were obtained:
Aβ40 [1] = test: 3-month dose-ranging study: Aβ40 in CSF; assay type: in vivo, human; settings: for Aβ40 % change from baseline, Mean (SD) / Aβ40 % change from baseline, Median: CSF, 3 months
From the text: This study is listed in ClinicalTrials.gov under the NCT02576639 Identifier code.
The primary purpose of this study was to expand on previous safety and tolerability data obtained over 2-week and 4-week duration in the first in human study and thereby allow initiation of future long-term efficacy trials in subjects at risk of AD. In addition, data relevant for Pharmacokinetic/Pharmacodynamic modeling was obtained in order to support dose selection decisions for future efficacy studies.
In the completed first-in-human and 3-month dose-ranging safety and tolerability clinical studies described in Examples 5 and 6, Aβ concentrations in CSF were obtained by means of lumbar punctures before the first dose (baseline) and respectively after 2 weeks and 3 months of multiple dosing. ApoE4 genotype also was obtained in the subjects who consented. The percent change from baseline in Aβ40 and Aβ42 concentrations was calculated in subjects who took the study treatment and had no major protocol deviation with potential impact on the evaluation of the pharmacodynamic effect. Tables 18 to 21 below provide summary statistics of the percent change from baseline by treatment group and ApoE genotype (E4 heterozygotes versus E4 non-carriers). Only one subject with CSF data was E4 homozygote (from the 3-month dose-ranging safety and tolerability study).

[2] = 3-month dose-ranging study: plasma pharmacokinetics (Cmax,ss); assay type: in vivo, human; settings: Day 91, 85 mg qd.
Aβ40 [3] = test: Formic acid soluble Aβ40 in APP23 mouse forebrain; assay type: in vivo
Procedure: Frozen mouse forebrains were weighed and homogenized in 9 volumes (w/v) of ice-cold TBS-Complete (20 mM Tris-HCl pH 7.4, 137 mM NaCl, 1× Complete [Protease Inhibitor Cocktail Tablets: 1 836 145, Roche Diagnostics GmbH, Penzberg, Germany]) by sonication (90% duty cycle, output control 5, 40-55 pulses, [Sonifier 450, Branson]). After homogenization several 50 μl aliquots were prepared for analysis and were stored at −80° C.
Fifty microliter of forebrain homogenate was mixed with 116.6 μl 100% formic acid, resulting in a final formic acid concentration of 70%. Samples were stored on ice and vortexed every 5 minutes. For neutralization, 50 μl of the mixture were pipetted into a new tube, and 950 μl of 1 M Tris base, containing 1× Complete Protease inhibitor, was added. Tubes were stored at room temperature overnight and then centrifuged for 15 minutes at 14000 rpm in an Eppendorf Microzentrifuge at 4° C. From the top layer, 100 μl are removed and mixed with 100 μl of 3% Blocker A solution (part of the MesoScale assay kit). This sample was either directly applied to the assay plate (dilution 1:1332) or further diluted in 1% Blocker A solution.

[4] = in vivo; for AUCblood (AUC0-24 h): po
From the text: Blood samples were used to analyze whole-blood compound levels and were obtained either from tail-vein during the in-life part into EDTA tubes (CB300, Sarstedt, Germany) or from trunk blood at the day of necropsy into EDTA Eppendorf tubes (Milian S A, CatNoTOM-14, Fisher Scientific, Wohlen, Switzerland), or into serum tubes (CB300Z, Sarstedt, Nümbrecht, Germany).
Brain was removed immediately after decapitation, rinsed with saline and sectioned sagitally down the midline. The left half of the cerebellum was used to analyze compound level and was placed into a glass tube (Chromacol, 125×5-SV T051, Welwyn Garden City, United Kingdom), weighed and frozen in dry-ice, the left half of the forebrain (without olfactory bulb) was used for Aβ analysis, and was frozen on a metal plate on dry ice and placed into protein Lo-bind tube (003 0108.116, Eppendorf, Hamburg, Germany).
Ventral and dorsal skin were taken to analyze compound level, weighed and frozen on dry-ice.
Brain samples were mixed with 2 volumes of KH2PO4 buffer and homogenized using the Covaris® device. Skin samples were mixed with approx. 6-fold volumes of methanol/water and homogenized using a Precellys tube. Either 30 μL of blood, brain or skin homogenate were spiked with a structurally related internal standard and subsequently mixed with an at least 6-fold excess volume acetonitrile for protein precipitation. The supernatant was injected directly into the LC/MS/MS system for analysis.
For tissue exposure, only data at 4 and 24 h were available.

C[C@@]1(c2nc(NC(=O)c3ncc(C(F)(F)F)cc3Cl)ccc2F)CO[C@@](C)(C(F)(F)F)C(N)=N1 [Compound 1, N-(6-((3R,6R)-5-amino-3,6-dimethyl-6-(trifluoromethyl)-3,6-dihydro-2H-1,4-oxazin-3-yl)-5-fluoropyridin-2-yl)-3-chloro-5-(trifluoromethyl)picolinamide]
Aβ40 % change from baseline, Mean (SD) (Aβ40 [1]; 2 mg, E4 heterozygotes): −21 (11) % | Aβ40 % change from baseline, Median (Aβ40 [1]; 2 mg, E4 heterozygotes): −18% | Aβ40 % change from baseline, Mean (SD) (Aβ40 [1]; 2 mg, E4 non-carriers): −24 (9) % | Aβ40 % change from baseline, Median (Aβ40 [1]; 2 mg, E4 non-carriers): −22% | Aβ40 % change from baseline, Mean (SD) (Aβ40 [1]; 10 mg, E4 heterozygotes): −67 (7) % | Aβ40 % change from baseline, Median (Aβ40 [1]; 10 mg, E4 heterozygotes): −64% | Aβ40 % change from baseline, Mean (SD) (Aβ40 [1]; 10 mg, E4 non-carriers): −64 (6) % | Aβ40 % change from baseline, Median (Aβ40 [1]; 10 mg, E4 non-carriers): −65% | Aβ40 % change from baseline, Mean (SD) (Aβ40 [1]; 35 mg, E4 heterozygotes): −84 (3) % | Aβ40 % change from baseline, Median (Aβ40 [1]; 35 mg, E4 heterozygotes): −85% | Aβ40 % change from baseline, Mean (SD) (Aβ40 [1]; 35 mg, E4 non-carriers): −82 (5) % | Aβ40 % change from baseline, Median (Aβ40 [1]; 35 mg, E4 non-carriers): −83% | Aβ40 % change from baseline, Mean (SD) (Aβ40 [1]; 85 mg, E4 heterozygotes): −91 (0) % | Aβ40 % change from baseline, Median (Aβ40 [1]; 85 mg, E4 heterozygotes): −91% | Aβ40 % change from baseline, Mean (SD) (Aβ40 [1]; 85 mg, E4 non-carriers): −91 (2) % | Aβ40 % change from baseline, Median (Aβ40 [1]; 85 mg, E4 non-carriers): −90% | difference in CSF Aβ40 and Aβ42 response between ApoE4 carriers and non-carriers (Aβ40 [1]; first-in-human (2 weeks) and 3-month studies): no difference in CSF Aβ40 and Aβ42 response to treatment | PD steady-state (Aβ lowering) reached after (Aβ40 [1]; healthy elderly subjects, once-daily dosing): 2-3 weeks | Aβ40 in CSF percent change from baseline, Difference (90% CI) Cmpd 1-Placebo (Aβ40 [1]; month 3, 2 mg QD): −19.87 (−23.09, −16.65) % | Aβ40 in CSF percent change from baseline, LSmean (SE) (Aβ40 [1]; month 3, 2 mg QD): −22.66 (1.355) % | Aβ40 in CSF percent change from baseline, Difference (90% CI) Cmpd 1-Placebo (Aβ40 [1]; month 3, 10 mg QD): −60.18 (−63.43, −56.92) % | Aβ40 in CSF percent change from baseline, LSmean (SE) (Aβ40 [1]; month 3, 10 mg QD): −62.96 (1.388) % | Aβ40 in CSF percent change from baseline, Difference (90% CI) Cmpd 1-Placebo (Aβ40 [1]; month 3, 35 mg QD): −80.41 (−83.59, −77.22) % | Aβ40 in CSF percent change from baseline, LSmean (SE) (Aβ40 [1]; month 3, 35 mg QD): −83.19 (1.325) % | Aβ40 in CSF percent change from baseline, Difference (90% CI) Cmpd 1-Placebo (Aβ40 [1]; month 3, 85 mg QD): −87.62 (−90.93, −84.30) % | Aβ40 in CSF percent change from baseline, LSmean (SE) (Aβ40 [1]; month 3, 85 mg QD): −90.40 (1.429) % | Cmax, ss, Mean [2]: 602 ng/mL | Formic acid soluble Aβ40 change vs vehicle (Aβ40 [3]; APP23, 0.03 g/kg vs vehicle): −18.1% | Formic acid soluble Aβ40 change vs vehicle (Aβ40 [3]; APP23, 0.3 g/kg vs vehicle): −79.2% | AUCbrain (AUC0-24 h) ([4]; C57BL/6, mouse, 8 umol/kg): 11.61 µmol·h/kg | AUCbrain (AUC0-24 h) ([4]; C57BL/6, mouse, 50 umol/kg): 88.93 µmol·h/kg | reduction of blood exposure, last day vs beginning of experiment ([4]; C57BL/6, mouse, 8 weeks): around 35% | AUCblood (AUC0-24 h) ([4]; C57BL/6, mouse, 8 umol/kg): 3.49 µM·h | AUCblood (AUC0-24 h) ([4]; C57BL/6, mouse, 50 umol/kg): 18.53 µM·h | rel. AUCdorsal skin ([4]; mouse): 12.6 | rel. AUCventral skin ([4]; mouse): 16.8 | AUCdorsal skin (AUC0-24 h) ([4]; mouse, 8 umol/kg): 54.3 µmol·h/kg | AUCventral skin (AUC0-24 h) ([4]; mouse, 8 umol/kg): 78.29 µmol·h/kg | AUCdorsal skin (AUC0-24 h) ([4]; mouse, 50 umol/kg): 271.6 µmol·h/kg | AUCventral skin (AUC0-24 h) ([4]; mouse, 50 umol/kg): 308.7 µmol·h/kg
